Data reported in ChEMBL document CHEMBL1201862, “PubChem BioAssay data set” (2004).
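Assay format: 96-well plates, 48-hour exposure. GI50: concentration for 50% inhibition of growth.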 Calls of active or inactive are those of the source. No stated cut-off is given here; in the data, active = GI50 up to about 1.1 µM and inactive = higher.

Assays:
Assay in all cases: NCI-60 cell line screen, 48 h
SF-268 = test system: SF-268
EKVX = test system: EKVX
DU-145 = test system: DU-145
COLO 205 = test system: COLO 205
SNB-75 = test system: SNB-75
HT-29 = test system: HT-29
U-251 = test system: U-251
SK-MEL-2 = test system: SK-MEL-2
MDA-MB-231 = test system: MDA-MB-231
A498 = test system: A498
SF-539 = test system: SF-539
CCRF-CEM = test system: CCRF-CEM
HCT-15 = test system: HCT-15
NCI-H460 = test system: NCI-H460
SK-MEL-5 = test system: SK-MEL-5
KM12 = test system: KM12
SK-MEL-28 = test system: SK-MEL-28
MDA-N = test system: MDA-N
BT-549 = test system: BT-549

Row | SMILES | GI50 (SF-268) | GI50 (EKVX) | GI50 (DU-145) | GI50 (COLO 205) | GI50 (SNB-75) | GI50 (HT-29) | GI50 (U-251) | GI50 (SK-MEL-2) | GI50 (MDA-MB-231) | GI50 (A498) | GI50 (SF-539) | GI50 (CCRF-CEM) | GI50 (HCT-15) [µM] | GI50 (NCI-H460) | GI50 (SK-MEL-5) | GI50 (KM12) | GI50 (SK-MEL-28) | GI50 (MDA-N) | GI50 (BT-549)
1 | CCOC(CN=C=S)OCC | > 10 µM (inactive) | > 10 µM (inactive) | > 10 µM (inactive) | > 10 µM (inactive) | > 10 µM (inactive) | > 10 µM (inactive) | > 10 µM (inactive) | > 10 µM (inactive) | > 10 µM (inactive) | > 10 µM (inactive) | > 10 µM (inactive) | 4.45 µM (inactive) | > 10 | > 10 µM (inactive) | > 10 µM (inactive) | > 10 µM (inactive) | > 10 µM (inactive) | > 10 µM (inactive) | 
2 | CCCCCCCCOP(=O)(O)OP(=O)(O)OCC1OC(n2ccc(N)nc2=O)C(O)C1O (stereo unspecified) | > 100 µM (inactive) | > 100 µM (inactive) |  | > 100 µM (inactive) | > 100 µM (inactive) | > 100 µM (inactive) | > 100 µM (inactive) | > 100 µM (inactive) | > 100 µM (inactive) | > 100 µM (inactive) | > 100 µM (inactive) | > 100 µM (inactive) | > 100 | > 100 µM (inactive) | > 100 µM (inactive) | > 100 µM (inactive) | > 100 µM (inactive) | > 100 µM (inactive) | > 100 µM (inactive)
3 | COC(=O)c1csc(-c2nc(CCNC(=O)OC(C)(C)C)sc2Br)n1 | > 100 µM (inactive) | > 100 µM (inactive) | > 100 µM (inactive) | > 100 µM (inactive) | > 100 µM (inactive) | > 100 µM (inactive) | > 100 µM (inactive) |  |  | > 100 µM (inactive) | > 100 µM (inactive) | > 100 µM (inactive) | > 100 | > 100 µM (inactive) | > 100 µM (inactive) | > 100 µM (inactive) | > 100 µM (inactive) | > 100 µM (inactive) | > 100 µM (inactive)
4 | Fc1cccc(C2SCc3nc4cc5ccccc5cc4n32)c1 (stereo unspecified) | > 100 µM (inactive) | > 100 µM (inactive) | > 100 µM (inactive) | > 100 µM (inactive) | 93.1 µM (inactive) | > 100 µM (inactive) | > 100 µM (inactive) | > 100 µM (inactive) | > 100 µM (inactive) |  | > 100 µM (inactive) | > 100 µM (inactive) | > 100 |  |  | > 100 µM (inactive) | > 100 µM (inactive) | > 100 µM (inactive) | > 100 µM (inactive)
5 | O=C1OC(C(O)CO)C(C(O)CO)OC1=O (stereo unspecified) | > 10 µM (inactive) | > 10 µM (inactive) |  | > 10 µM (inactive) |  | > 10 µM (inactive) | > 10 µM (inactive) |  | > 10 µM (inactive) | > 10 µM (inactive) | > 10 µM (inactive) | > 10 µM (inactive) | > 10 | > 10 µM (inactive) | > 10 µM (inactive) | > 10 µM (inactive) | > 10 µM (inactive) |  | > 10 µM (inactive)
6 | COc1ccccc1C#C/C=C\C#Cc1ccccc1C#N | 19.4 µM (inactive) | 5.94 µM (inactive) | 20 µM (inactive) | 13.3 µM (inactive) | 28.7 µM (inactive) | 6.28 µM (inactive) | 9.18 µM (inactive) | 14.9 µM (inactive) |  |  | 18.6 µM (inactive) | 5.26 µM (inactive) | 6.93 | 13.3 µM (inactive) | 2.09 µM (inactive) | 6.37 µM (inactive) | 34.2 µM (inactive) |  | 
7 | O=C1Nc2ccccc2/C1=N/Nc1nc(-c2ccc(Cl)c(Cl)c2)cs1 |  | > 100 µM (inactive) | 92 µM (inactive) | 29.9 µM (inactive) | 49.3 µM (inactive) | 56 µM (inactive) | 77.4 µM (inactive) | 43 µM (inactive) | > 100 µM (inactive) |  | 73.5 µM (inactive) |  | 6.24 | 17.6 µM (inactive) | 20 µM (inactive) | 29.6 µM (inactive) | > 100 µM (inactive) | 47 µM (inactive) | 
8 | Cc1ccc(/C=c2\c(=O)[nH]c3nc4ccccc4c(=O)n23)cc1 | 45.5 µM (inactive) |  | 53 µM (inactive) | 18.3 µM (inactive) | 28.6 µM (inactive) |  | 19.9 µM (inactive) | 62.2 µM (inactive) | 43.9 µM (inactive) |  | 18.8 µM (inactive) | 30.7 µM (inactive) | 34.8 |  |  | 45.7 µM (inactive) | 43.9 µM (inactive) | 23.8 µM (inactive) | 21.6 µM (inactive)
9 | Cn1c(S)nnc1-c1csc(-c2ccc(Cl)cc2)n1 | 29.3 µM (inactive) | 30.7 µM (inactive) |  | > 100 µM (inactive) | 18.7 µM (inactive) | > 100 µM (inactive) | > 10 µM (inactive) |  | 24 µM (inactive) |  | 22.2 µM (inactive) | > 100 µM (inactive) | 53.8 | 21.3 µM (inactive) | > 100 µM (inactive) | > 100 µM (inactive) | 44.6 µM (inactive) | 61 µM (inactive) | 22.1 µM (inactive)
10 | NC(=S)SC1=NC(=O)C2(NN1)c1ccccc1-c1ccccc12 | > 10 µM (inactive) | 6.58 µM (inactive) | > 10 µM (inactive) | > 10 µM (inactive) | > 10 µM (inactive) | > 10 µM (inactive) |  |  | > 10 µM (inactive) |  | > 10 µM (inactive) | > 10 µM (inactive) | > 10 | 8.59 µM (inactive) | 6.12 µM (inactive) | > 10 µM (inactive) | > 10 µM (inactive) | > 10 µM (inactive) | > 10 µM (inactive)
11 | Cc1coc2c1[C@@H](O)[C@@]1(C)[C@H](CCC[C@@H]1C)C2 | 34.6 µM (inactive) | 69 µM (inactive) | 37 µM (inactive) | 22.6 µM (inactive) |  | 42.8 µM (inactive) |  |  | 27.2 µM (inactive) |  | 21.5 µM (inactive) | 37.6 µM (inactive) | 23.8 | 45.5 µM (inactive) | 49.9 µM (inactive) | 85.3 µM (inactive) | 48.2 µM (inactive) | 20.7 µM (inactive) | 
12 | CC1NOC(NS(=O)(=O)c2ccc(/N=N/c3c(O)c(C(=O)O)cc4ccccc34)cc2)C1C (stereo unspecified) | > 100 µM (inactive) | > 100 µM (inactive) |  | > 100 µM (inactive) | > 100 µM (inactive) | > 100 µM (inactive) | > 100 µM (inactive) | > 100 µM (inactive) | > 100 µM (inactive) |  | > 100 µM (inactive) | > 100 µM (inactive) | > 100 | > 100 µM (inactive) | > 100 µM (inactive) | 57.8 µM (inactive) | > 100 µM (inactive) |  | > 100 µM (inactive)
13 | CC1(C)C(O)C[C@]23CCC[C@](C)(C[C@@H](O)C12)C3 (stereo partly specified) | > 100 µM (inactive) | > 100 µM (inactive) |  | > 100 µM (inactive) | > 100 µM (inactive) | > 100 µM (inactive) | > 100 µM (inactive) | > 100 µM (inactive) |  |  |  | > 100 µM (inactive) | > 100 | > 100 µM (inactive) | > 100 µM (inactive) | > 100 µM (inactive) | > 100 µM (inactive) |  | > 100 µM (inactive)
14 | O=[N+]([O-])c1nccn1CC1OC(n2ccnc2[N+](=O)[O-])C(O)C(O)C1O (stereo unspecified) |  | > 100 µM (inactive) |  | > 100 µM (inactive) | > 100 µM (inactive) | > 100 µM (inactive) | > 100 µM (inactive) | > 100 µM (inactive) |  | > 100 µM (inactive) |  | > 100 µM (inactive) |  | > 100 µM (inactive) | > 100 µM (inactive) | > 100 µM (inactive) | > 100 µM (inactive) | > 100 µM (inactive) | > 100 µM (inactive)
15 | O=C(c1ccccc1)c1c(C(F)(F)F)[n+]([O-])c2cc(F)c(F)cc2[n+]1[O-] | 1.32 µM (inactive) | 2.45 µM (inactive) | 0.984 µM (active) | 3.86 µM (inactive) | 1.95 µM (inactive) | 0.586 µM (active) | 0.377 µM (active) | 1.79 µM (inactive) | 0.61 µM (active) | 2.56 µM (inactive) | 0.838 µM (active) |  | 0.49 | 3.21 µM (inactive) | 0.877 µM (active) | 1.07 µM (active) | 1.26 µM (inactive) |  | 
16 | CCOC(=O)c1c(-c2ccc(OC)c(O)c2)c(C#N)c(=S)n(C2OC(CO)C(O)C(O)C2O)c1-c1ccccc1 (stereo unspecified) | > 100 µM (inactive) | 1.6 µM (inactive) | > 100 µM (inactive) | > 100 µM (inactive) |  | > 100 µM (inactive) | > 100 µM (inactive) |  |  | > 100 µM (inactive) |  | > 100 µM (inactive) | > 100 | > 100 µM (inactive) | > 100 µM (inactive) | > 100 µM (inactive) | > 100 µM (inactive) | > 100 µM (inactive) | 
17 | COC(=O)CCC(C)[C@H]1CCC2C3C(C[C@H](OC(C)=O)[C@@]21C)[C@@]1(C)CCC2(C[C@H]1C[C@H]3OC(C)=O)OOC1(CCC(C(C)(C)C)CC1)OO2 (stereo partly specified) | 18.6 µM (inactive) | 4.12 µM (inactive) | > 100 µM (inactive) | > 100 µM (inactive) | 37.9 µM (inactive) | > 100 µM (inactive) | 6.73 µM (inactive) | > 100 µM (inactive) | 46.3 µM (inactive) | > 100 µM (inactive) | 68.7 µM (inactive) | 5.5 µM (inactive) | 50 | 5.65 µM (inactive) | 22.6 µM (inactive) | 14.1 µM (inactive) | > 100 µM (inactive) |  | 33.3 µM (inactive)
